pIC50: −log10 of the molar value.

Drawing on patent publication US20090005398A1, “Methods For The Treatment of Central Nervous System Tumors” (priority 2007, published 2009), this text covers solubility and IC50 for one molecule.

A short description of data set [1]: High throughput solubility assay. Format: physicochemical. The note with it: aqueous buffer, pH 7.4, 0.05M phosphate buffer. The protocol: Two samples are prepared. One (the standard sample) contains the compound at a fixed concentration of 20 μM in an aqueous/organic mixed solvent cocktail. The other (the test sample) contains the compound at a maximum concentration of 200 μM in pH 7.4, 0.05M phosphate buffer and shaking for 24 h. The test sample is filtered by 0.45μ filter and then spun for 10 min to remove any undissolved solid. HPLC analyses are preformed on these samples. The peak areas are used for computing solubility.

For data set [2], the system named is cancer cell lines. The experiment in a line: Methylene Blue, Cell-Titre Glo Growth or Multiple Cell Line cellular proliferation assays. Format: cell-based. The protocol: Generally, exponentially growing cell lines of different tumor origins, cultured in appropriate media containing 10% fetal bovine serum at 37° C. in a 5% CO2 incubator were plated at low density (less than 2000 cells/well) in 96-well plates. Twenty four hours post-plating, cells were treated with different concentrations of compound ranging from 10 uM to 0.04 nM. Several wells were left untreated as a control. Seventy two hours post-treatment, cell numbers were determined using 100 μl per well of methylene blue (Sigma M9140) (0.5% in 50:50 Ethanol:water). Stain was incubated at room temperature for 30 minutes before plates were rinsed and dye solubilized in 1% N-lauroyl sarcosine, sodium salt, (Sigma L5125, in PBS) (further details of a methylene blue assay are described below). Plates were read on a microplate reader, measuring the OD at 620 nm.
Exponentially growing cell lines of different tumor origins, cultured in appropriate media containing 10% fetal bovine serum at 37° C. in a 5% CO2 incubator were plated at low density (less than 2000 cells/well) in 96-well plates. […] Seventy two hours post-treatment, cell numbers were determined using 50-100 ul per well of CellTiter-Glo (Promega #G7573). Plates were incubated at room temperature for 15 minutes and the chemiluminescent signal was read on the Victor V or Envison 2100 reader. […]

For data set [3], the system named is SW1088. The experiment in a line: Multiple cell line screen, cell proliferation. Format: cell-based. As to conditions: Homo sapiens, SW1088, 72 h; astrocytoma; nuclei count, 3 days. As to the method:
(§1) Growth properties for multiple cell lines were used to determine two seeding densities for each cell line that would be used in the screen. Cell lines were thawed and grown to 70-80% confluency before being used in the assay. On day −1, cells were seeded at 2 densities in 384-well plates and incubated at 37° C. overnight. Stock compound plates were prepared in advance which contained dimethyl sulfoxide (DMSO) alone and a 9-point half-log decreasing dose range of the compound in DMSO. These plates were stored at −80° C. and each plate was only thawed once and used. On day 0, the main assay plates received compound or DMSO via a sonic delivery system (ECHO). The highest final concentration of compound of the dose range in the culture plates was 10 uM. These plates were cultured at 37° C. for 3 days.
(§2) On day 3, the compound treated plates were stained and fixed to measure proliferation, apoptosis, and mitotic index. A nuclear stain was used to identify cells in the wells. By counting the number of nuclei, the proliferation index of compound treated groups were calculated as a percentage relative to the DMSO control, which was set to 100%. The IC50 values were calculated using model 205 in ExcelFit.

Data set [4] concerns DK-MG. As to the kind of experiment: Multiple cell line screen, cell proliferation. The note with it: 72 h; glioblastoma; nuclei count, 3 days. The class given is cell-based. As to the method: as §1, §2
The test system of data set [5] is SNB-75. The experiment in a line: Multiple cell line screen, cell proliferation. The note with it: Homo sapiens, SNB-75, 72 h; glioblastoma; nuclei count, 3 days. Format: cell-based. As to the method:
as §1, §2

In data set [6] the test system is SNB-19. As to the kind of experiment: Multiple cell line screen, cell proliferation. Format: cell-based. The note with it: Homo sapiens, SNB-19, 72 h; glioblastoma; nuclei count, 3 days. As to the method:
as §1, §2

Data set [7] concerns CCF-SSTG1. The experiment in a line: Multiple cell line screen, cell proliferation. Format: cell-based. The note with it: 72 h; astrocytoma; nuclei count, 3 days. As to the method: as §1, §2
Data set [8] relates to D283Med. The experiment in a line: Multiple cell line screen, cell proliferation. Format: cell-based. The note with it: Homo sapiens, D283 Med, 72 h; medulloblastoma; nuclei count, 3 days. As to the method: as §1, §2
Data set [9] has as its system SF-295. As to the kind of experiment: Multiple cell line screen, cell proliferation. Format: cell-based. As to conditions: Homo sapiens, SF-295, 72 h; glioblastoma; nuclei count, 3 days. The protocol: as §1, §2
Data set [10] deals with H4. The experiment in a line: Multiple cell line screen, cell proliferation. The class given is cell-based. As to conditions: 72 h; glioma; nuclei count, 3 days. As to the method:
as §1, §2

For data set [11], the system named is DBTRG-05MG. As to the kind of experiment: Multiple cell line screen, cell proliferation. Format: cell-based. The note with it: Homo sapiens, 72 h, glioblastoma, nuclei count, 3 days. As to the method:
as §1, §2

Data set [12] has as its system U-87MG. As to the kind of experiment: Multiple cell line screen, cell proliferation. The class given is cell-based. The note with it: Homo sapiens, 72 h, glioblastoma, astrocytoma, nuclei count, 3 days. As to the method:
as §1, §2

The subject of data set [13] is SF-268. The experiment in a line: Multiple cell line screen, cell proliferation. As to conditions: Homo sapiens, SF-268, 72 h; glioblastoma; nuclei count, 3 days. Format: cell-based. The protocol:
as §1, §2

Data set [14] has as its system A172. The experiment in a line: Multiple cell line screen, cell proliferation. The class given is cell-based. As to conditions: Homo sapiens, A 172, 72 h; glioblastoma; nuclei count, 3 days. The protocol:
as §1, §2

For data set [15], the system named is SF-539. The experiment in a line: Multiple cell line screen, cell proliferation. Format: cell-based. The note with it: Homo sapiens, SF-539, 72 h; astrocytoma; nuclei count, 3 days. As to the method:
as §1, §2

Broadly, the solubility is the concentration that dissolves in the medium under given conditions. By pIC50 is commonly meant the negative decadic logarithm of the IC50, by convention in mol/L. Higher therefore signals a small IC50. On to `C[C@@H](Oc1cc(-n2cnc3ccc(CN4CCN(C)CC4)cc32)sc1C(N)=O)c1ccccc1C(F)(F)F` [Example 1, 5-{6-[(4-Methylpiperazin-1-yl)methyl]-1H-benzimidazol-1-yl}-3-{(1R)-1-[2-(trifluoromethyl)phenyl]ethoxy}thiophene-2-carboxamide], for which, in [1], the solubility at 24 h is more than 100 µM. Also, the negative logarithm of the IC50 (pIC50) is more than 6.00 in data set [2]; more than 7.30 in data set [3]; more than 7.30 in data set [4]; 7.00 to 7.30 in data set [5]; more than 7.30 in data set [6]; more than 7.30 in data set [7]. Also, the pIC50 in data set [8], in [9], in [10], in data set [11], in data set [12] and in [13] was more than 7.30 throughout. Moreover, the pIC50 in data set [14] and in data set [15] was more than 7.30 throughout.
